Test results: PubChem BioAssay (NCI)
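GI50 is the concentration that inhibits growth by half. Definition used: TGI = concentration required for complete inhibition of growth.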

Tests used:
Assay in all cases: inhibition of tumour cell growth, NCI panel, 384-well format
OVCAR-5 ovarian = system: OVCAR-5 ovarian
HCT-15 colon = system: HCT-15 colon
NCI-H226 lung = system: NCI-H226 lung
EKVX NSCLC = system: EKVX NSCLC
KM12 colon = system: KM12 colon
NCI-H522 lung = system: NCI-H522 lung
SF-295 CNS = system: SF-295 CNS
UO-31 renal = system: UO-31 renal
SF-539 CNS = system: SF-539 CNS
SR leukemia = system: SR leukemia
MDA-MB-231 breast = system: MDA-MB-231 breast
CCRF-CEM leukemia = system: CCRF-CEM leukemia
SK-MEL-5 melanoma = system: SK-MEL-5 melanoma

How did the GI50 (OVCAR-5 ovarian) turn out when `O=S(=O)(c1ccc2c(c1)C(=NO)c1cc(S(=O)(=O)N3CCCCC3)ccc1-2)N1CCCCC1` was run?
Its GI50 is 184 nM.

And the TGI (OVCAR-5 ovarian)?
Its TGI is 324 nM.

And the GI50 (HCT-15 colon)?
The GI50 was 186 nM.

What about the TGI (HCT-15 colon) of the same compound?
Its TGI is 333 nM.

What about the GI50 (NCI-H226 lung) of the same compound?
Its GI50 is 168 nM.

What about the TGI (NCI-H226 lung) of the same compound?
Its TGI is 309 nM.

What about the GI50 (EKVX NSCLC) of the same compound?
The GI50 was 115 nM.

And the TGI (EKVX NSCLC)?
The TGI was 241 nM.

What about the GI50 (KM12 colon) of the same compound?
Its GI50 is 177 nM.

What about the TGI (KM12 colon) of the same compound?
Its TGI is 329 nM.

What about the GI50 (NCI-H522 lung) of the same compound?
Its GI50 is 172 nM.

What about the TGI (NCI-H522 lung) of the same compound?
The TGI was 314 nM.

And the GI50 (SF-295 CNS)?
The GI50 was 176 nM.

What about the TGI (SF-295 CNS) of the same compound?
The TGI was 316 nM.

And the GI50 (UO-31 renal)?
The GI50 was 16 nM.

And the TGI (UO-31 renal)?
Its TGI is 29.8 nM.

And the GI50 (SF-539 CNS)?
Its GI50 is 174 nM.

And the TGI (SF-539 CNS)?
The TGI was 317 nM.

What about the GI50 (SR leukemia) of the same compound?
Its GI50 is 158 nM.

And the TGI (SR leukemia)?
The TGI was 294 nM.

And the GI50 (MDA-MB-231 breast)?
The GI50 was 139 nM.

What about the TGI (MDA-MB-231 breast) of the same compound?
Its TGI is 270 nM.

What about the GI50 (CCRF-CEM leukemia) of the same compound?
Its GI50 is 82.5 nM.

And the TGI (CCRF-CEM leukemia)?
Its TGI is 205 nM.

And the GI50 (SK-MEL-5 melanoma)?
The GI50 was 184 nM.

What about the TGI (SK-MEL-5 melanoma) of the same compound?
Its TGI is 359 nM.
